Laboratory results reported in patent US10493042B2, “Method for preventing or treating diabetes mellitus, and method for screening for diabetes mellitus therapeutic agent” (UNIVERSITY-INDUSTRY COOPERATION GROUP OF KYUNG HEE …, priority 2013, dated 2019).

Columns and labels:
NCI-H716 cell [1] = assay: GLP-1 secretion in human enteroendocrine cell (ELISA); type: cell-based; conditions: 10, 20, 50, 100, 200, 500, 1000 and 2000 μM, 1 hour, FIG. 1A
Description: A NCI-H716 cell, i.e., a human enteroendocrine cell, was obtained from Korean Cell Line Bank. The obtained cell was culture in RPMI 1640 medium until the number of obtained cells increased in a proper amount. Then. the cells were moved to a matrigel-coated plate, and then cultured in DMEM medium for 48 hours, for endocrine differentiation.
Geraniol and nerol were purchased from Signa-Aldrich, USA.
Human enteroendocrine cells were each treated with geraniol at a concentration of 10, 20, 50, 100, 200, 500, 1000, and 2000 μM, respectively, and then cells were cultured for 1 hour. A human enteroendocrine cell was treated with nerol, which is an isomer of geraniol, as a comparison group, i.e., a negative control group, under the same condition as in the treating with geraniol.
GLP-1 secretion from the cell treated with geraniol and the cell treated with nerol were identified using enzyme-linked immunosorbent assay (ELISA). ELISA was carried out using a GLP-1 ELISA kit, available from Millipore, based on the user manual. The amount of GLP-1 secretion was measured using a fluoroskan ascent microplate reader (Thermo Electron Corp., Finland).

NCI-H716 cell [2] = assay: Cell viability MTT assay; type: cell-based, human; conditions: 10 μM to 1000 μM, 1 hour, compared with PBS, FIG. 8
Description: In order to verify cytotoxicity of geraniol on a human enteroendocrine cell, MTT assay was carried out as follows. In detail, cell viability assay was carried out using 3-(4,5-dimethylthiazol-2-yl)-2,5-diphenyltetrazolium) bromide (MTT) (available from Invitrogen, Carlsbad, Calif., USA). An endocrine cell, a NCI-H716 cell, was treated with geraniol of different levels of concentration and 6 mM MTT for 1 hour. Dimethyl sulfoxide (DMSO) was added to the cells, and absorbance thereof was measured using Bio-Rad model 680 microplated reader (Bio-Rad, Hercules, Calif., USA) at 540 nm.

[3] = tested on: db/db mouse, type II diabetes mellitus model; assay: Oral glucose tolerance test after gavage; type: in vivo
Description: Oral glucose tolerance test was performed on a db/db mouse (leptin receptor knocked-out mice) (35 g to 39 g), which is a type II diabetes mellitus model. A male 6 week-old db/db mouse was purchased from Daehan Biolink Co., Ltd (DBL, South Korea). A fasting blood sugar level of a db/db mouse of 18 hour-gastric emptying fasted state was measured. Then, the experimental group and the control group were each oral administered with geraniol and metformin, and saline via gavage. Geraniol was administered at 150 or 500 mg/weight Kg, and metformin was administered at 300 mg/weight Kg. Then, each group was administered with glucose of 5 g/weight Kg. Oral glucose tolerance test (OGTT) was performed after 10 minutes, 20 minutes, 40 minutes, 90 minutes, and 120 minutes elapsed.

olfactory receptor OR1G1 = biological target: T1, olfactory receptor OR1G1 (Homo sapiens, UniProt P47890); assay: GLP-1 secretion by geraniol in enteroendocrine cell with OR1G1 knocked-down by siRNA; type: cell-based; conditions: 100 μM, 1 hour, OR1G1 knocked-down vs normal cell, FIG. 1C
T1 construct: endogenous in cells; host or cells: human enteroendocrine cell (NCI-H716 named)
T1 sequence (P47890 1-313): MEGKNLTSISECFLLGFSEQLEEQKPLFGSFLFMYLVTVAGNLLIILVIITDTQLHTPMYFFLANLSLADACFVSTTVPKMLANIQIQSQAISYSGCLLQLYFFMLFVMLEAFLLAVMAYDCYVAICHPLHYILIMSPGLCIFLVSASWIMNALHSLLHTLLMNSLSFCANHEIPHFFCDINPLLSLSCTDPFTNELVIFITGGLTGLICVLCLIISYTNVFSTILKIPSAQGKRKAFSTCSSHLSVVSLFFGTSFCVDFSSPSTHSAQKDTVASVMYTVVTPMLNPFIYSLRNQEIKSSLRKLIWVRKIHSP
Description: (§1) In a human enteroendocrine cell, in which an olfactory receptor is knocked-down by small-interference RNA (siRNA), an olfactory receptor signal transduction mechanism was identified.
(§2) Human enteroendocrine cells in which olfactory receptors OR1A1 and OR1G1 were knocked-down by siRNAs, respectively, were cultured. SiRNAs for knocking-down OR1A1 (SEQ ID NO. 1 and 2, siRNA No. 1108058) and OR1G1 (SEQ ID NO. 3 and 4, siRNA No. 1108121) are available from Bioneer Co. (South Korea). Lipofectamine 2000 (available from Life technology, USA) was used to carry out intracellular transfection, based on the user manual.
(§3) The human enteroendocrine cells in which olfactory receptors were knocked-down and a normal human enteroendocrine cell were each treated with geraniol at a concentration of 100 μM. Then, the cells were cultured for 1 hour at 37° C. at a concentration of 5% CO2. Thereafter, GLP-1 secretion was identified using ELISA.

[4] = tested on: human enteroendocrine cell; assay: Change amount of cAMP in human enteroendocrine cell (cAMP ELISA); type: cell-based; conditions: 100 μM geraniol, FIG. 3
Description: In a human enteroendocrine cell, the result of geraniol treatment (100 μM) and forskolin treatment (10 μM), which is a cAMP activator, were compared with each other.

olfactory receptor OR1A1 = biological target: T2, olfactory receptor OR1A1 (Homo sapiens, UniProt Q9P1Q5); assay: GLP-1 secretion by geraniol in enteroendocrine cell with OR1A1 knocked-down by siRNA; type: cell-based; conditions: 100 μM, 1 hour, OR1A1 knocked-down vs normal cell, FIG. 1B
T2 construct: endogenous in cells; host or cells: human enteroendocrine cell (NCI-H716 named)
T2 sequence (Q9P1Q5 1-309): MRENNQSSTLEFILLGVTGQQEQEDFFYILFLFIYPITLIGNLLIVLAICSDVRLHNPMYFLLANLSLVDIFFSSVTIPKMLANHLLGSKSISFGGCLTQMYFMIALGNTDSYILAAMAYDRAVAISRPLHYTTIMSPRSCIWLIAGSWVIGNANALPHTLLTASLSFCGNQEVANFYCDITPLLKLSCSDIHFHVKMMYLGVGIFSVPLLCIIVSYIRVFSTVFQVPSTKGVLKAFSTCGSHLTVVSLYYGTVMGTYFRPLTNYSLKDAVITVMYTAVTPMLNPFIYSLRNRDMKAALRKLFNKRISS
Description: as §1, §2, §3

[5] = tested on: human enteroendocrine cell; assay: Change of calcium concentration in human enteroendocrine cell; type: cell-based; conditions: 100 μM, treated after 1 minute elapsed from the start of the experiment, FIG. 2
Excerpt: FIG. 2 is a graph showing the change of calcium concentration in a human enteroendocrine cell after geraniol treatment.

[6] = tested on: db/db mouse, type II diabetes mellitus model; assay: Plasma GLP-1 and insulin after gavage and glucose (multiplex assay); type: in vivo; conditions: oral administration, glucose 2 g/weight Kg, compared with PBS group
Description: By using the same method in Example 2 (1), db/db mice of fasted state were each gavaged with geraniol, metformin, or saline. Then, each group were administered with glucose of 2 g/weight Kg. after 10 minutes, 20 minutes, 30 minutes, and 40 minutes elapsed, the amount of GLP-1 and insulin in plasma were measured by using multiplex assay (available from Bio-Rad, USA), based on the user manual, and Bio-Plex MAGPIX multiplex reader (available from Bio-Rad, USA).

[7] = tested on: db/db mouse, type II diabetes mellitus model; assay: Oral glucose tolerance test with geraniol smelling (olfactory stimulation); type: in vivo
Description: A male 6 week-old db/db mouse was purchased from Daehan Biolink Co., Ltd (DBL, South Korea). A fasting blood sugar level of a db/db mouse of 18 hour-gastric emptying fasted state was measured. Then, the experimental group was stimulated (smelling) with geraniol through olfaction. The control group was oral administered with saline and metformin of 300 mg/weight Kg via gavage. Then, each of the experimental group and the control group were administered with glucose of 2 g/weight Kg. After 10 minutes, 20 minutes, 40 minutes, 90 minutes, and 120 minutes elapsed, the amount of GLP-1 in plasma was verified by using multiplex assay (available from Bio-Rad, USA).

| SMILES | GLP-1 secretion promoting effect (NCI-H716 cell [1]) | cytotoxicity (cell viability, MTT) (NCI-H716 cell [2]) | hypoglycemic effect at oral glucose tolerance test ([3]; gavage 150 or 500 mg/weight Kg, glucose 5 g/weight Kg, compared with saline group, FIG. 5A-5C) | hypoglycemic effect compared with metformin ([3]; geraniol gavage 150 or 500 mg/weight Kg vs metformin 300 mg/weight Kg) | GLP-1 secretion via stimulation of OR1G1 (olfactory receptor OR1G1) | time after treatment at which concentration of cAMP in the cell was the highest [4] | GLP-1 secretion via stimulation of OR1A1 (olfactory receptor OR1A1) | time at which calcium concentration in the cell was the highest [5] | plasma GLP-1 ([6]; FIG. 6A, 6C) | plasma insulin ([6]; FIG. 6B, 6D) | blood sugar level ([7]; geraniol smelling (olfactory stimulation), FIG. 9) | amount of GLP-1 in plasma ([7]; geraniol smelling, 10 minutes after glucose 2 g/weight Kg, vs metformin 300 mg/weight Kg oral, FIG. 10) |
| --- | --- | --- | --- | --- | --- | --- | --- | --- | --- | --- | --- | --- |
| CC(C)=CCC/C(C)=C\CO [nerol, reference compound] | had no GLP-1 secretion promotion effect | – | – | – | – | – | – | – | – | – | – | – |
| CC(C)=CCC/C(C)=C/CO [geraniol] | dose-dependently promotes GLP-1 secretion | found not to have cytotoxicity | exhibited hypoglycemic effect | comparable to metformin | stimulates OR1G1, an olfactory receptor, promoting GLP-1 secretion | 30 min | stimulates OR1A1, an olfactory receptor, promoting GLP-1 secretion | 4 min | secretion inducing of GLP-1 | additional insulin | lowered the blood sugar level | increased more than the case of metformin administration |
